PubChem BioAssay AID2649 (Southern Research Specialized Biocontainment Screening …, 2010)
The source made the active and inactive calls.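 Rule for the calls: active = lowest viability as percent of untreated cell control, measured with 5% serum, under 70% cytotoxic; inactive = the rest.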

Legend:
[1] = system: MAGI-CCR5 HeLa cells viability, MTS, 5% serum; assay: cytotoxicity in MAGI-CCR5 cells, SAR follow-up, cytotoxicity control for HIV-1 antiviral lead project, cell-based, MTS, 5% and 10% serum (AID 2649)
[2] = system: MAGI-CCR5 HeLa cells viability, MTS, 10% serum; assay: as above

For `O=C(O)c1ccccc1N=Nc1c(O)[nH]c2ccc([N+](=O)[O-])cc12`, the CC50 [1] was > 100 µM (inactive) and the CC50 [2] was over 100 µM.

In the case of `CCC(Sc1nc2ccsc2c(=O)n1Cc1ccc(C(=O)O)cc1)C(=O)Nc1ccc(C)c(Cl)c1` (stereo not drawn), the CC50 [1] was > 100 µM (inactive) and the CC50 [2] was over 100 µM.

In the case of `Cc1c(Cl)cccc1NS(=O)(=O)c1ccc2c(c1)C1C=CCC1C(c1ccc(C(=O)O)cc1)N2` (stereo not drawn), the CC50 [1] was 71.7 µM and the CC50 [2] was over 100 µM.

`O=C(O)CCCN1C(=O)/C(=C/c2ccc(-c3nc4ccccc4s3)o2)SC1=S` was tested, and the CC50 [1] was > 100 µM (inactive) and the CC50 [2] was over 100 µM.

For `N#C/C(=C\c1ccc(OCc2ccc(Cl)cc2)cc1)C(=O)Nc1cccc(C(=O)O)c1`, the CC50 [1] was > 100 µM (inactive) and the CC50 [2] was over 100 µM.

`O=C1NC(=S)N(c2ccc(F)cc2)C(=O)/C1=C\c1ccoc1` was tested, and the CC50 [2] was over 100 µM.

In the case of `COc1cc(/C=C2\SC(=O)N(c3ccccc3Cl)C2=O)cc([N+](=O)[O-])c1O`, the CC50 [2] was over 100 µM.

For `Oc1c(Cl)cc(Cl)c(Cl)c1Cc1c(O)c(Cl)cc(Cl)c1Cl`, the CC50 [1] was 56.5 µM and the CC50 [2] was over 100 µM.

With `CC(C)NC(=O)c1sc(=S)n2c1[nH]c(=O)c1ccc(C(=O)NCCc3ccc(Cl)cc3)cc12` the CC50 [1] was > 100 µM (inactive) and the CC50 [2] was over 100 µM.

For `CCOC(=O)c1sc(N2C(=O)C(O)=C(C(=O)c3ccc(C)o3)C2c2cccc([N+](=O)[O-])c2)nc1C` (stereo not drawn), the CC50 [1] was > 100 µM (inactive) and the CC50 [2] was over 100 µM.

For `O=[N+]([O-])c1cc([N+](=O)[O-])c2oc(-c3ccccc3)c(Br)c2c1O`, the CC50 [1] was 38.7 µM and the CC50 [2] was over 100 µM.

`CC(C)(C)c1cc(-c2csc(Nc3ccccc3)[n+]2Cc2ccc(C(=O)O)cc2)cc(C(C)(C)C)c1O` was tested, and the CC50 [1] was 54.9 µM and the CC50 [2] was 62.4 µM.

With `COc1cc(/C=N/NS(=O)(=O)c2ccc3ccccc3c2)ccc1OCc1ccc(C(=O)O)cc1` the CC50 [1] was > 100 µM (inactive) and the CC50 [2] was over 100 µM.

With `CCC(C)(C)C1CCc2c(sc(NC(=O)c3ccccc3C(=O)O)c2C#N)C1` (stereo not drawn) the CC50 [2] was over 100 µM.

`O=C(N/N=C/c1c(O)n(C2CCCCC2)c(=S)[nH]c1=O)c1ccccc1O` was tested, and the CC50 [1] was > 100 µM (inactive) and the CC50 [2] was over 100 µM.

In the case of `CCOC(=O)C1=C(C)N=c2sc(=Cc3ccc(OCC(=O)O)cc3)c(=O)n2C1c1ccc(OC(C)C)cc1` (stereo not drawn), the CC50 [2] was over 100 µM.

In the case of `N#C/C(=C\c1ccc(O)c([N+](=O)[O-])c1)c1nc2ccccc2s1`, the CC50 [1] was > 100 µM (inactive) and the CC50 [2] was over 100 µM.

For `CSc1nnc(-c2ccccc2N=Cc2c(C)[nH]n(-c3ccc4ccccc4c3)c2=O)c(=O)[nH]1`, the CC50 [1] was > 100 µM (inactive) and the CC50 [2] was over 100 µM.

`CCOc1cc(/C=C2\SC(=O)N(CC(=O)Nc3ccccc3F)C2=O)cc([N+](=O)[O-])c1O` was tested, and the CC50 [1] was > 100 µM (inactive) and the CC50 [2] was over 100 µM.

With `Cc1c2c(=O)n(-c3nc4ccccc4s3)nc-2cc(O)n1Cc1ccccc1` the CC50 [1] was > 100 µM (inactive) and the CC50 [2] was over 100 µM.

`COC(=O)c1sc(-c2ccc(C(C)(C)C)cc2)cc1NC(=O)c1ccccc1C(=O)O` showed a CC50 [1] of 88.7 µM and a CC50 [2] of over 100 µM.
